Assay results reported in patent US20060100140A1, “Combination of a) n-{5-[4-(4-methyl-piperazino-methyl)-benzoylamido]2-methylphenyl}-4- (3-pyridyl)-2-pyrimidine-amine and b) a histone deacetylase inhibitor for the treatment of leukemia” (priority 2002, published 2006).

System: LAMA 84 cells
Test: Annexin V/PI flow cytometry of cell death
Type: cell-based, human
Details: 200 nM Compound I ± 1.0 μM SAHA for 24 hr
Description: For these studies, the percentage of apoptotic cells is determined by evaluating ≧500 cells/condition in triplicate. To confirm the results of morphological analysis, Annexin V/PI staining is used. Annexin V/PI (BD PharMingen, San Diego, Calif.) analysis of cell death is carried out as per the manufacturer's instructions. In studies involving TNF and TNF soluble receptor, both compound are combined and maintained at room temperature 20 min prior to use. For these experiments 1-2×10^5 cells per condition are harvested. Analysis is carried out using a Becton-Dickinson FACScan cytofluorometer (Mansfield, Mass.). To further confirm the morphology results, TUNEL staining is used. For TUNEL staining, cytocentrifuge preparations are obtained and fixed with 4% formaldehyde. The slides are treated with acetic acid/ethanol (1:2), stained with terminal transferase reaction mixture containing 1× terminal transferase reaction buffer (0.25 units/μl terminal transferase, 2.5 mM CoCl2, and 2 pmol fluorescein-12-dUTM; Boehringer Mannheim, Indianapolis, Ind.), and visualized using fluorescence microscopy.

O=C(CCCCCCC(=O)Nc1ccccc1)NO [SAHA, suberoylanilide hydroxamic acid]
% Annexin V/PI: 15.2 ± 2.4%
